Here are results for 23 molecules from patent US20260285876A1, “MACROCYCLIC COMPOUNDS AS USP1 INHIBITORS” (GUANGDONG NEWOPP BIOPHARMACEUTICALS CO., LTD., priority 2023, published 2026).

For this assay, the target named is T1, USP1/UAF1 (Homo sapiens, UniProt O94782).
T1 construct: purchased R&D Systems
The experiment in a line: Deubiquitination assay for USP1/UAF1 (ubiquitin-rhodamine 110 substrate). It is filed as biochemical. The settings on record: 0.5 nM USP1/UAF1, 150 nM ubiquitin-rhodamine, 50% inhibition compared to DMSO control. As for the experimental part: Deubiquitination assay for USP1/UAF1: compounds described here were tested for their ability to inhibit USP1 deubiquitinase activity in this assay using ubiquitin-rhodamine 110 as the substrate. The assay was conducted in the assay buffer (50 mM Tris-HCl, pH 7.8, 0.5 mM EDTA, 0.1 mg/ml Bovine Serum Albumin, 1 mM DTT, 0.01% Tween-20) in 384 well plates. 0.5 nM USP1/UAF1 (R&D Systems) was incubated with compounds in dose response format for 10 minutes at room temperature. Then the reaction was initiated by addition of 150 nM ubiquitin-rhodamine (R&D Systems). The fluorescence intensity was read after 45 minutes at Ex488/Em535 by CLARIOstar (BMG Labtech). IC50 response curves were plotted.

A word on the IC50: it is the concentration that gives 50% inhibition. A higher IC50 goes with weaker potency.

T1 sequence (O94782 whole entry): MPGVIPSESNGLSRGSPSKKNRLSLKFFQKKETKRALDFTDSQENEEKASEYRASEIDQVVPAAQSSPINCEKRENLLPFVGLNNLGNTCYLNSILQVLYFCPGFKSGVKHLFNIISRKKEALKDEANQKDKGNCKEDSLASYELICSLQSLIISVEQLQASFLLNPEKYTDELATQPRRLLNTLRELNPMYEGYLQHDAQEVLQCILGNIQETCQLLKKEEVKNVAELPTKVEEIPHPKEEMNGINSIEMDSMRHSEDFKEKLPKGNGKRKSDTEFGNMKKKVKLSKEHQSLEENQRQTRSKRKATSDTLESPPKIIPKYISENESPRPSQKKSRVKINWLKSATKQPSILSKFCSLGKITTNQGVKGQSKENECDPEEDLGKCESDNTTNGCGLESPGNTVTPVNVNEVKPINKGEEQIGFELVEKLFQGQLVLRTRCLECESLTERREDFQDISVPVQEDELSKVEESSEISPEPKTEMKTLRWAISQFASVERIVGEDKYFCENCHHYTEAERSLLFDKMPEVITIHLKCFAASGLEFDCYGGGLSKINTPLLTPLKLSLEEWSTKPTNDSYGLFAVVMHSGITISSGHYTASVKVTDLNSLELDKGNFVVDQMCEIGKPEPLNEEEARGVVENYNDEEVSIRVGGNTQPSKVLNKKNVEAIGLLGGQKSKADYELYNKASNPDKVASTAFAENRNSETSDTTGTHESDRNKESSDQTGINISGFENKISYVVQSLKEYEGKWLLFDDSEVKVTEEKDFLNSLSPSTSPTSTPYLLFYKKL
T1 sequence (Q8TAF3 whole entry partner): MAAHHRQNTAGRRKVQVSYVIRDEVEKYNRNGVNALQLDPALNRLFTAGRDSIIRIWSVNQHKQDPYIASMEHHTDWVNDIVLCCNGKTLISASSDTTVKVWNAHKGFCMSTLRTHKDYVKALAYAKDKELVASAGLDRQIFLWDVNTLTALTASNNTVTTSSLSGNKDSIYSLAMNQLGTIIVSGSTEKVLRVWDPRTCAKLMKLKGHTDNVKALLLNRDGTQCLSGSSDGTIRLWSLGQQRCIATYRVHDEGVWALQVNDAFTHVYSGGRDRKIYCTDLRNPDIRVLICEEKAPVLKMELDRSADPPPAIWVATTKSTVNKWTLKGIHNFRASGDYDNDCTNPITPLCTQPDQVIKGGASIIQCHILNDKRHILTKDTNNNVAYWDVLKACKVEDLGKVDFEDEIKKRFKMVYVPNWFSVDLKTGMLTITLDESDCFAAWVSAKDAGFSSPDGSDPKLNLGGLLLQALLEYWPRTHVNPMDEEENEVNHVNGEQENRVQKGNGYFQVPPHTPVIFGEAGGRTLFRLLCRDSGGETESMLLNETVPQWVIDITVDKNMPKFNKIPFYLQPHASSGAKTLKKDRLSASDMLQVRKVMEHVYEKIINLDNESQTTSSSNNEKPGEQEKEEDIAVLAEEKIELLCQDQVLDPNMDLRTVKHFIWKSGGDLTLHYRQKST

For the molecule `FC(F)(F)c1cn(C2CC2)c(-c2ccc3cc2CCCCOc2ncnc(C4CC4)c2-c2ncc4ccc(n4n2)C3)n1` [Example 47], the IC50 is at most 100 nM. Regarding `CC(C)n1cc(C(F)(F)F)nc1-c1ccc2c(c1)NCCCOc1ncnc(C3CC3)c1-c1ncc3ccc(n3n1)C2` [Example 33, (Z)-1^6-cyclopropyl-4^4-(1-isopropyl-4-(trifluoromethyl)-1H-imidazol-2-yl)-9-oxa-5-aza-2(2,7)-pyrrolo[2,1-f][1,2,4]triazina-1(5,4)-pyrimidina-4(1,2)-benzenacyclononaphane], the IC50 was at most 100 nM. As for `CC(C)n1cc(C(F)(F)F)nc1-c1ccc2c(c1)CCCOc1ncnc(C3CC3)c1-c1ncc3cnn(c3n1)C2` [Example 9, 1^6-cyclopropyl-4^4-(1-isopropyl-4-(trifluoromethyl)-1H-imidazol-2-yl)-2^1H-8-oxa-2(6,1)-pyrazolo[3,4-d]pyrimidina-1(5,4)-pyrimidina-4(1,2)-benzenacyclooctaphane], the figure is at most 100 nM. Turning to `CC(C)n1cc(C(F)(F)F)nc1-c1ccc2cc1/C=C\CCOc1ncnc(C3CC3)c1-c1ncc3cnn(c3n1)C2` [Example 46, (Z)-1^6-cyclopropyl-4^4-(1-isopropyl-4-(trifluoromethyl)-1H-imidazol-2-yl)-2^1H-9-oxa-2(6,1)-pyrazolo[3,4-d]pyrimidina-1(5,4)-pyrimidina-4(1,3)-benzenacyclononaphan-5-ene], the IC50 was at most 100 nM. As for `CC(C)n1cc(C(F)(F)F)nc1-c1ccc2cc1OCCCOc1ncnc(C3CC3)c1-c1ncc3cnn(c3n1)C2` [Example 38, 1^6-cyclopropyl-4^4-(1-isopropyl-4-(trifluoromethyl)-1H-imidazol-2-yl)-2^1H-5,9-dioxa-2(6,1)-pyrazolo[3,4-d]pyrimidina-1(5,4)-pyrimidina-4(1,3)-benzenacyclononaphane], the figure is at most 100 nM; as for “1^6-cyclopropyl-4^4-(1-isopropyl-4-(trifluoromethyl)-1H-imidazol-2-yl)-2^1H-9-oxa-5-aza-2(6,1)-pyrazolo[3,4-d]pyrimidina-1(5,4)-pyrimidina-4(1,3)-benzenacyclonona-phane [Example 50]”, at most 100 nM.

The molecule `CC(C)n1cc(C(F)(F)F)nc1-c1ccc2c(c1)OCCCNc1c(ncnc1C1CC1)-c1ncc3cnn(c3n1)C2` [Example 10, 1^6-cyclopropyl-4^4-(1-isopropyl-4-(trifluoromethyl)-1H-imidazol-2-yl)-2^1H-5-oxa-9-aza-2(6,1)-pyrazolo[3,4-d]pyrimidina-1(5,4)-pyrimidina-4(1,2)-benzenacyclononaphane] yielded an IC50 of at most 100 nM. In turn, `CC(C)c1cc(C(F)(F)F)nn1-c1ccc2c(c1)NCCCOc1ncnc(C3CC3)c1-c1ncc3cnn(c3n1)C2` [Example 37, 16-cyclopropyl-44-(5-isopropyl-3-(trifluoromethyl)-1H-pyrazol-1-yl)-21H-9-oxa-5-aza-2(6,1)-pyrazolo[3,4-d]pyrimidina-1(5,4)-pyrimidina-4(1,2)-benzenacyclononaphane] returned an IC50 of at most 100 nM.

`CC(C)n1cc(C(F)(F)F)nc1-c1ccc2c(c1)NCCOc1ncnc(C3CC3)c1-c1ncc3cnn(c3n1)C2` [Example 14, 1^6-cyclopropyl-4^4-(1-isopropyl-4-(trifluoromethyl)-1H-imidazol-2-yl)-2^1H-8-oxa-5-aza-2(6,1)-pyrazolo[3,4-d]pyrimidina-1(5,4)-pyrimidina-4(1,2)-benzenacyclooctaphane] displayed a half-maximal inhibitory concentration (IC50) of at most 100 nM. Consider `FC(F)(F)c1cn(C2CC2)c(-c2ccc3c(c2)/C=C/CCOc2ncnc(C4CC4)c2-c2ncc4ccc(n4n2)C3)n1` [Example 51, (2^1Z,5E)-1^6-cyclopropyl-4^4-(1-cyclopropyl-4-(trifluoromethyl)-1H-imidazol-2-yl)-8-oxa-2(2,7)-pyrrolo[2,1-f][1,2,4]triazina-1(5,4)-pyrimidina-4(1,2)-benzenacyclooctaphan-5-ene], for which the IC50 was at most 100 nM.

Take `CC(C)n1cc(C(F)(F)F)nc1-c1ccc2c(c1)N(C)CCCOc1ncnc(C3CC3)c1-c1ncc3cnn(c3n1)C2` [Example 23, 1^6-cyclopropyl-4^4-(1-isopropyl-4-(trifluoromethyl)-1H-imidazol-2-yl)-5-methyl-2^1H-9-oxa-5-aza-2(6,1)-pyrazolo[3,4-d]pyrimidina-1(5,4)-pyrimidina-4(1,2)-benzenacyclononaphane]: the IC50 is at least 1000 nM. As for `CC(C)n1cc(C(F)(F)F)nc1-c1ccc2cc1C#CCCOc1ncnc(C3CC3)c1-c1ncc3cnn(c3n1)C2` [Example 43], the figure is 100 to 1000 nM. In the case of `CC(C)n1cc(C(F)(F)F)nc1-c1ccc2c(c1)NCCCOc1ncnc(C3CC3)c1-c1ncc3ccn(c3n1)C2` [Example 35, 1^6-cyclopropyl-4^4-(1-isopropyl-4-(trifluoromethyl)-1H-imidazol-2-yl)-2^7H-9-oxa-5-aza-2(2,7)-pyrrolo[2,3-d]pyrimidina-1(5,4)-pyrimidina-4(1,2)-benzenacyclononaphane] it was at most 100 nM. `CC(C)n1cc(C(F)(F)F)nc1-c1ccc2c(c1)NCCCOc1ncnc(C3CC3)c1-c1ncc3cnn(c3n1)C2` [Example 8, 1^6-cyclopropyl-4^4-(1-isopropyl-4-(trifluoromethyl)-1H-imidazol-2-yl)-2^1H-9-oxa-5-aza-2(6,1)-pyrazolo[3,4-d]pyrimidina-1(5,4)-pyrimidina-4(1,2)-benzenacyclononaphane] registered an IC50 of at most 100 nM. For the molecule `CC(C)n1cc(C(F)(F)F)nc1-c1ccc2c(c1)/C=C/CCOc1ncnc(C3CC3)c1-c1ncc3cnn(c3n1)C2` [Example 55, (E)-16-cyclopropyl-44-(1-isopropyl-4-(trifluoromethyl)-1H-imidazol-2-yl)-21H-9-oxa-2(6,1)-pyrazolo[3,4-d]pyrimidina-1(5,4)-pyrimidina-4(1,2)-benzenacyclononaphan-5-ene4(1,2)-benzenacyclononaphane], the IC50 is at most 100 nM. In the case of `CC(C)n1cc(C(F)(F)F)nc1-c1ccc2c(c1)NCCCOc1ncnc(C3CC3)c1-c1ncc3ccc(=O)n(c3n1)C2` [Example 20, 1^6-cyclopropyl-4^4-(1-isopropyl-4-(trifluoromethyl)-1H-imidazol-2-yl)-2^7,2^8-dihydro-9-oxa-5-aza-2(2,8)-pyrido[2,3-d]pyrimidina-1(5,4)-pyrimidina-4(1,2)-benzenacyclononaphan-2^7-one] it was at most 100 nM. `CC(C)n1cc(C(F)(F)F)nc1-c1ccc2c(c1)OCCNc1ncnc(C3CC3)c1-c1ncc3cnn(c3n1)C2` [Example 11, 1^6-cyclopropyl-4^4-(1-isopropyl-4-(trifluoromethyl)-1H-imidazol-2-yl)-2^1H-5-oxa-8-aza-2(6,1)-pyrazolo[3,4-d]pyrimidina-1(5,4)-pyrimidina-4(1,2)-benzenacyclooctaphane] returned an IC50 of at most 100 nM.

In turn, `Cc1cc(C(F)(F)F)nn1-c1ccc2cc1OCCCOc1ncnc(C3CC3)c1-c1ncc3cnn(c3n1)C2` [Example 56, 1^6-cyclopropyl-4^4-(5-methyl-3-(trifluoromethyl)-1H-pyrazol-1-yl)-2^1H-5,9-dioxa-2(6,1)-pyrazolo[3,4-d]pyrimidina-1(5,4)-pyrimidina-4(1,3)-benzenacyclononaphane] came in with an IC50 of at most 100 nM.

The molecule `FC(F)(F)c1cn(C2CC2)c(-c2ccc3c(c2)/C=C/COc2ncnc(C4CC4)c2-c2ncc4cnn(c4n2)C3)n1` [Example 57] gave a half-maximal inhibitory concentration (IC50) of at most 100 nM. In the case of `CC(C)n1cc(C(F)(F)F)nc1-c1ccc2cc1/C=C/CCOc1ncnc(C3CC3)c1-c1ncc3cnn(c3n1)C2` [Example 44, (E)-1^6-cyclopropyl-4^4-(1-isopropyl-4-(trifluoromethyl)-1H-imidazol-2-yl)-2^1H-9-oxa-2(6,1)-pyrazolo[3,4-d]pyrimidina-1(5,4)-pyrimidina-4(1,3)-benzenacyclononaphan-5-ene] it was at most 100 nM; in that of `FC(F)(F)c1cn(C2CC2)c(-c2ccc3c(c2)OCCOc2ncnc(C4CC4)c2-c2ncc4cnn(c4n2)C3)n1` [Example 13, 1^6-cyclopropyl-4^4-(1-cyclopropyl-4-(trifluoromethyl)-1H-imidazol-2-yl)-2^1H-5,8-dioxa-2(6,1)-pyrazolo[3,4-d]pyrimidina-1(5,4)-pyrimidina-4(1,2)-benzenacyclooctaphane], at most 100 nM; in that of `FC(F)(F)c1cn(C2CC2)c(-c2ccc3cc2OCCCOc2ncnc(C4CC4)c2-c2ncc4ccc(n4n2)C3)n1` [Example 52, (Z)-1^6-cyclopropyl-4^4-(1-cyclopropyl-4-(trifluoromethyl)-1H-imidazol-2-yl)-5,9-dioxa-2(2,7)-pyrrolo[2,1-f][1,2,4]triazina-1(5,4)-pyrimidina-4(1,3)-benzenacyclononaphane], at most 100 nM.

For `CC(C)c1cccc2c1-c1ncc3cnn(c3n1)Cc1ccc(-c3nc(C(F)(F)F)cn3C(C)C)cc1OCCO2` [Example 7, 1^6-isopropyl-4^4-(1-isopropyl-4-(trifluoromethyl)-1H-imidazol-2-yl)-2^1H-5,8-dioxa-2(6,1)-pyrazolo[3,4-d]pyrimidina-1,4(1,2)-dibenzenacyclooctaphane], the IC50 is at most 100 nM.
